The record followed here is US20120190648A1, “FLUORINATED CYCLOPROPANE ANALOGS OF GLUTAMIC ACID” (priority 2009, published 2012).

The assay addresses mGlu4 receptor (Rattus norvegicus, UniProt P31423). In words: mGlu4 receptor test at different doses (1 nM to 1 mM) to determine EC50. It counts as cell-based. Here is the method:
The compounds according to the invention have been tested on the mGlu4 receptor at different doses (between 1 nM and 1 mM) in order to determine their EC50 value. This test has been carried out according to the protocol described in: C. Selvam, C. Goudet, N. Oueslati, J.-P. Pin, F. Acher J. Med. Chem. 2007, 50, 4656-4664.

Each structure is given as a SMILES string. Where two headings read alike, the source gives them in different places.

mGlu4 receptor, sequence (P31423 33-912): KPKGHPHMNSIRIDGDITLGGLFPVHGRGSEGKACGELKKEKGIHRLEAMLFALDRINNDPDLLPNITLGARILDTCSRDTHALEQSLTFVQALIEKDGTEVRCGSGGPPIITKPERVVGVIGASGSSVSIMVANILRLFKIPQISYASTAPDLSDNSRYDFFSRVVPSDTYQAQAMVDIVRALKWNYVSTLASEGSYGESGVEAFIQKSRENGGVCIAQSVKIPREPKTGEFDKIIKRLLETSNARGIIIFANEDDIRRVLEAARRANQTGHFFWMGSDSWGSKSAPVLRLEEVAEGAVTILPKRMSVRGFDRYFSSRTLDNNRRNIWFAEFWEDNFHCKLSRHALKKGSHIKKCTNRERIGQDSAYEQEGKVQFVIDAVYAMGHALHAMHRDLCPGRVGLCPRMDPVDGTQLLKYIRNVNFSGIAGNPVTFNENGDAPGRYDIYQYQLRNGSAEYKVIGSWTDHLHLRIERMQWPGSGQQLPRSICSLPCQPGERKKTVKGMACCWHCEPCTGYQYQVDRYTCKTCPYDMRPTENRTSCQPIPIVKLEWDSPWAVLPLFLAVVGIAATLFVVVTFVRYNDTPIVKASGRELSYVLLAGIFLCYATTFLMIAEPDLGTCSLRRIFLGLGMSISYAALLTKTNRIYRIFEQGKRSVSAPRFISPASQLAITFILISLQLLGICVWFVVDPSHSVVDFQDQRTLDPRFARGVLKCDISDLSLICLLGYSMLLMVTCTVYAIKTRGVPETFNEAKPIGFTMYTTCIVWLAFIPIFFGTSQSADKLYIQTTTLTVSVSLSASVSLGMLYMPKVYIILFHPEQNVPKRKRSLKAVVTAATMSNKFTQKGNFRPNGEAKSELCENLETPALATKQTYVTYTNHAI

On to `N[C@]1(C(=O)O)C[C@@]1(F)C(O)P(=O)(O)O` (mixture of isomers) [cis-I-3], for which the EC50 was 27.4 µM.
On the same count and under the same terms, in the case of `NC1(C(=O)O)CC1(F)CP(=O)(O)O` (racemic) [cis-I-4] it was 0.34 µM.
Turning to `NC1(C(=O)O)CC1(F)CS(=O)(=O)O` (racemic) [cis-I-6], the half-maximal effective concentration (EC50) (mGlu4 receptor, doses between 1 nM and 1 mM, protocol of Selvam et al. J. Med. Chem. 2007, 50, 4656-4664, read-out: EC50) stood at 85.6 µM.

Broadly, the EC50 is the concentration at which the effect is half-maximal.
